Values after ≈ are worked out from the molar mass of the structure shown. Read-outs that look alike come from different tables or passages of the source.
Experiments:
S. aureus ATCC25923 = test: MIC determination by microplate dilution, S. aureus human strain; type: cell-based, Staphylococcus aureus; details: Staphylococcus aureus, ATCC25923, Gram-positive, Mueller-Hinton medium, 24 h, 37° C.
Method: (§1) 1) Preparation of the Preculture
(§2) A negative control (2 mL of sterile culture medium)
(§3) A positive control (1940 μL of culture medium+40 μL of DMSO+20 μL of bacterial suspension) from a thawed biological strain (the biological strains are stored at −80° C. in glycerol).
(§4) The tubes were incubated at 37° C. for 24 hours at 100 rpm.
(§5) The microorganisms were handled under a type L2 laboratory fume cupboard and, before any handling, a UV cycle was programmed and only sterile material was used. […] The chemical compounds to be tested were prepared in a DMSO/methanol mixture (50/50) at a concentration of 5 mg/mL.
(§6) 2) Preparation of the Microplate for the Determination of the Minimum Inhibitory Concentration (MIC)
(§7) After 24 hours of incubation, a measurement of the optical density was taken using a spectrophotometer at 600 nm, collecting 100 μL of the bacterial suspension diluted in 900 μL of the sterile culture medium. This test required the use of a 96-well plate and the required volume of the microbial suspension to be seeded was calculated for an OD corresponding to a value equal to 0.01 in each well. In this plate, the first line corresponded to the negative control (195 μL of sterile culture medium in each well), the second line to the positive control (seeded culture medium supplemented with 2% of DMSO), the third line was loaded twice with bacterial suspension, 8 μL of test product were placed in each well. Thereafter, a 0.5 cascade dilution was performed from this line.
(§8) The first column served as inhibition control. A sterile filter was then placed on the microplate, allowing the passage of gases but not of contaminants. The microplate was incubated at 37° C. under a humid atmosphere for 24 hours.
(§9) NB: The medium used is Mueller-Hinton (MH) medium for bacteria. All the tests were performed in duplicate.
(§10) 4) Reading of the Results
(§11) After incubation, the filter was replaced with a transparent film, and an OD reading was then taken in an iEMS plate spectrophotometer at 620 nm. Calculation of the minimum inhibitory concentration (MIC) was performed.

S. aureus (340) = test: MIC determination by microplate dilution, S. aureus animal strain; type: cell-based, Staphylococcus aureus; details: Staphylococcus aureus, Gram-positive, Mueller-Hinton medium, 24 h, 37° C.
Method: as §1, §2, §3, §4, §5, §6, §7, §8, §9, §10, §11

S. intermedius (1051997) = test: MIC determination by microplate dilution, S. intermedius animal strain; type: cell-based, Staphylococcus intermedius; details: Staphylococcus intermedius, Gram-positive, Mueller-Hinton medium, 24 h, 37° C.
Method: as §1, §2, §3, §4, §5, §6, §7, §8, §9, §10, §11

E. faecalis ATCC29212 = test: MIC determination by microplate dilution, E. faecalis human strain; type: cell-based, Enterococcus faecalis; details: Enterococcus faecalis, ATCC29212, Gram-positive, Mueller-Hinton medium, 24 h, 37° C.
Method: as §1, §2, §3, §4, §5, §6, §7, §8, §9, §10, §11

E. coli ATCC28922 = test: MIC determination by microplate dilution, E. coli human strain; type: cell-based, Escherichia coli; details: Escherichia coli, ATCC28922, Gram-negative, Mueller-Hinton medium, 24 h, 37° C.
Method: as §1, §2, §3, §4, §5, §6, §7, §8, §9, §10, §11

E. coli (1956) = test: MIC determination by microplate dilution, E. coli animal strain; type: cell-based, Escherichia coli; details: Escherichia coli, Gram-negative, Mueller-Hinton medium, 24 h, 37° C.
Method: as §1, §2, §3, §4, §5, §6, §7, §8, §9, §10, §11

P. aeruginosa ATCC27853 = test: MIC determination by microplate dilution, P. aeruginosa human strain; type: cell-based, Pseudomonas aeruginosa; details: Pseudomonas aeruginosa, ATCC27853, Gram-negative, Mueller-Hinton medium, 24 h, 37° C.
Method: as §1, §2, §3, §4, §5, §6, §7, §8, §9, §10, §11

P. aeruginosa (1051575) [1] = test: MIC determination by microplate dilution, P. aeruginosa animal strain; type: cell-based, Pseudomonas aeruginosa; details: Pseudomonas aeruginosa, Gram-negative, Mueller-Hinton medium, 24 h, 37° C.
Method: as §1, §2, §3, §4, §5, §6, §7, §8, §9, §10, §11

CHO-K1 cells = test: WST1 cytotoxicity test on CHO-K1 cells; type: cell-based, Chinese hamster; details: Cricetulus griseus, read-out: IC50 (μg/mL) CHO
Method: Test WST1 was used to measure the cytotoxic activity of the products. This is a colorimetric test which makes it possible to measure the viability and the degree of cell proliferation. It is based on cleavage of the colorless tetrazolium salts WST-1 (4-[3-(4-iodophenyl)-2-(4-nitrophenyl)-2H-5-tetrazolio]-1,3-benzene disulfonate) with mitochondrial dehydrogenases to the yellow-colored formazan derivative, which may be quantified by spectrophotometry at 420-480 nm.
The WST1 test was performed on Chinese hamster ovary cells. The CHO-K1 cells (ATCC, USA) are kept in culture on McCoy's 5A medium supplemented with 10% fetal calf serum, 2 mM of L-glutamine and a mixture of penicillin-streptomycin (100 U/ml: 10 μg/mL). The culture is incubated at 37° C. under an atmosphere enriched in CO2 (5%), and subcultured every two days.
The cells are transferred into 96-well plates (25 000 cells/mL) in whole McCoy's 5A medium, and maintained for 24 hours at 37° C. under a humid atmosphere enriched in CO2 (5%). Increasing concentrations of test products are added to the wells in double tests and 8 growth controls containing the cells in the medium alone are included in each series of tests. After 24 hours at 37° C. (5% CO2), the culture medium is removed, the cells are rinsed in phosphate buffer (PBS) and 50 μL of PBS containing 10% of reagent WST1 are added to each well. After 20 minutes of incubation at 37° C., the results are read by spectrophotometry at 450 nm.
The results are expressed in dose-response relationships, modeled by nonlinear regression analysis using the TableCurve software. The 50% inhibitory concentration (IC50) represents the concentration of product that is capable of reducing the cell viability by 50%.

P. aeruginosa (1051575) [2] = test: Potentiation of the doxycycline activity at 2 μg/mL; type: cell-based, Pseudomonas aeruginosa; details: in combination with doxycycline 2 μg/mL; 24 h, 37°
C. albicans = test: Antifungal activity, cascade microdilution, C. albicans; type: cell-based, Candida albicans; details: Candida albicans; compounds as hydrochloride in water; MH medium; 24 h; read-out: IC50 (μg/mL) C. albicans

| Compound | MIC (S. aureus ATCC25923) [µg/mL] | MIC (S. aureus (340)) [µg/mL] | MIC (S. intermedius (1051997)) [µg/mL] | MIC (E. faecalis ATCC29212) [µg/mL] | MIC (E. coli ATCC28922) [µg/mL] | MIC (E. coli (1956)) [µg/mL] | MIC (P. aeruginosa ATCC27853) [µg/mL] | MIC (P. aeruginosa (1051575) [1]) [µg/mL] | IC50 (CHO-K1 cells; CHO-K1, 24 h) [µg/mL] | MIC - P. aeruginosa (1051575): content of compound of formula (I) to restore the doxycycline activity (at 2 μg/mL) (P. aeruginosa (1051575) [2]) [µg/mL] | IC50 (CHO-K1 cells; CHO-K1, CHO (Example 7)) [µg/mL] | IC50 (C. albicans) [µg/mL] |
| --- | --- | --- | --- | --- | --- | --- | --- | --- | --- | --- | --- | --- |
| CC(C)OC(=O)CC[C@@H](C)[C@H]1CCC2C3CCC4C[C@@H](NCCCNCCCNCCCN)CC[C@]4(C)C3C[C@H](O)[C@@]21C (stereo partly drawn) [Compound (1), isopropyl 3β-norsperminodeoxycholate] | 4 (≈ 6.61 µM) | 2 (≈ 3.31 µM) | 2 (≈ 3.31 µM) | 8 (≈ 13.2 µM) | 8 (≈ 13.2 µM) | 10 (≈ 16.5 µM) | 8 (≈ 13.2 µM) | 2 (≈ 3.31 µM) | 50 (≈ 82.6 µM) | 2 |  |  |
| CC(C)OC(=O)CC[C@@H](C)[C@H]1CCC2C3CCC4C[C@@H](NCCCNCCCN)CC[C@]4(C)C3C[C@H](O)[C@@]21C (stereo partly drawn) [Compound (2), isopropyl 3β-norspermidinodeoxycholate] | 3 (≈ 5.48 µM) | 3 (≈ 5.48 µM) | 3 (≈ 5.48 µM) | 14 (≈ 25.6 µM) | 14 (≈ 25.6 µM) | 28 (≈ 51.1 µM) | 14 (≈ 25.6 µM) | 14 (≈ 25.6 µM) | 60 (≈ 110 µM) | 3 |  |  |
| COC(=O)CC[C@@H](C)[C@H]1CCC2C3CCC4C[C@@H](NCCCNCCCNCCCN)CC[C@]4(C)C3C[C@H](O)[C@@]21C (stereo partly drawn) [Compound (3), methyl 3β-norsperminodeoxycholate] | 2 (≈ 3.47 µM) | 4 (≈ 6.93 µM) | 1 (≈ 1.73 µM) | 2 (≈ 3.47 µM) | 29 (≈ 50.3 µM) | 14 (≈ 24.3 µM) | 2 (≈ 3.47 µM) | 2 (≈ 3.47 µM) | 6 (≈ 10.4 µM) | 4 |  |  |
| CC(C)OC(=O)CC[C@@H](C)[C@H]1CCC2C3C(C[C@H](O)[C@@]21C)[C@@]1(C)CC[C@H](NCCCNCCCNCCCN)CC1C[C@H]3O (stereo partly drawn) [Compound (6), isopropyl 3β-norsperminocholate] | 8 (≈ 12.9 µM) | 8 (≈ 12.9 µM) | 16 (≈ 25.8 µM) | > 60 | 30 (≈ 48.3 µM) | 30 (≈ 48.3 µM) | 30 (≈ 48.3 µM) | 30 (≈ 48.3 µM) | 90 (≈ 145 µM) | 4 |  |  |
| COC(=O)CC[C@@H](C)[C@H]1CCC2C3C(CC[C@@]21C)[C@@]1(C)CC[C@H](NCCCNCCCNCCCN)CC1C[C@@H]3O (stereo partly drawn) [Compound (12), methyl 3β-norsperminoursodeoxycholate] | 7 (≈ 12.1 µM) | 4 (≈ 6.93 µM) | 1 (≈ 1.73 µM) | 30 (≈ 52 µM) | 4 (≈ 6.93 µM) | 60 (≈ 104 µM) | 30 (≈ 52 µM) | 7 (≈ 12.1 µM) | 20 (≈ 34.7 µM) | 2 |  |  |
| CC(C)OC(=O)CC[C@@H](C)[C@H]1CCC2C3C(CC[C@@]21C)[C@@]1(C)CC[C@H](NCCCNCCCN)CC1C[C@@H]3O (stereo partly drawn) [Compound (14), isopropyl 3β-norspermidinoursodeoxycholate] |  | 55 (≈ 100 µM) | 12.5 (≈ 22.8 µM) |  |  | 110 (≈ 201 µM) |  | 110 (≈ 201 µM) |  |  | 200 (≈ 365 µM) | 28 (≈ 51.1 µM) |

Source: patent US20190255073A1, “ESTERS OF 3-POLYAMINE DERIVATIVES OF BILE ACIDS FOR THE TREATMENT OF INFECTIONS” (VIRBAC, priority 2016, published 2019)
